PubChem BioAssay (NCI)
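How tested: cells in 96-well plates exposed to compound for 48 hours at five concentrations. GI50 = concentration required for 50% inhibition of growth. TGI is the concentration that stops growth completely.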

Columns and labels:
Test in all cases: NCI anticancer screen, dose series, 48 h
CAKI-1 renal = test system: CAKI-1 renal
HCT-15 colon = test system: HCT-15 colon
HOP-92 NSCLC = test system: HOP-92 NSCLC
K-562 leukemia = test system: K-562 leukemia
MOLT-4 leukemia = test system: MOLT-4 leukemia
NCI-H23 lung = test system: NCI-H23 lung
NCI-H460 lung = test system: NCI-H460 lung
RXF 393 renal = test system: RXF 393 renal
SF-268 CNS = test system: SF-268 CNS
SK-MEL-2 melanoma = test system: SK-MEL-2 melanoma

SMILES | TGI (CAKI-1 renal) | TGI (HCT-15 colon) | TGI (HOP-92 NSCLC) | TGI (K-562 leukemia) | TGI (MOLT-4 leukemia) | TGI (NCI-H23 lung) | TGI (NCI-H460 lung) | TGI (RXF 393 renal) | TGI (SF-268 CNS) | TGI (SK-MEL-2 melanoma) | GI50 (CAKI-1 renal) | GI50 (HCT-15 colon) | GI50 (HOP-92 NSCLC) | GI50 (K-562 leukemia) | GI50 (MOLT-4 leukemia) | GI50 (NCI-H23 lung) | GI50 (NCI-H460 lung) | GI50 (RXF 393 renal) | GI50 (SF-268 CNS) | GI50 (SK-MEL-2 melanoma)
COC(=O)C(=O)C(C(=O)C(=O)Nc1cccc(C(C)=O)c1)c1nc2ccccc2[nH]c1=O (stereo not given) | > 100 µM | > 100 µM | > 100 µM | > 100 µM | > 100 µM | > 100 µM | > 100 µM | > 100 µM | > 100 µM | > 100 µM | – | – | – | – | – | – | – | – | – | –
COc1cc(C(=O)Nc2cc3c(cc2Oc2cc(C)cc(C)c2)C(=O)N(C)[C@@H](CC(=O)N(C)O)C(=O)N3)c(Br)c(OC)c1OC | 2.58 µM | 2.04 µM | < 0.00333 µM | 0.00872 µM | < 0.00333 µM | 0.00543 µM | 0.00425 µM | 0.00609 µM | 0.0067 µM | < 0.00333 µM | 0.496 µM | 0.144 µM | < 0.00333 µM | < 0.00333 µM | < 0.00333 µM | < 0.00333 µM | < 0.00333 µM | < 0.00333 µM | < 0.00333 µM | < 0.00333 µM
Nc1ccc(C(=O)CC(N)C(=O)O)cc1O (stereo not given) | > 100 µM | > 100 µM | > 100 µM | > 100 µM | > 100 µM | > 100 µM | > 100 µM | > 100 µM | > 100 µM | > 100 µM | – | – | – | – | – | – | – | – | – | –
CN(C)CC1CCC/C1=N\O (stereo not given) | > 100 µM | > 100 µM | > 100 µM | > 100 µM | > 100 µM | > 100 µM | > 100 µM | > 100 µM | > 100 µM | > 100 µM | – | – | – | – | – | – | – | – | – | –
CNCCn1c(=O)c2cc(OC)c(OC)cc2c2ccc3cc4c(cc3c21)OCO4 | 0.588 µM | 3.06 µM | 2.13 µM | 5.19 µM | 0.211 µM | 0.556 µM | 0.558 µM | 0.727 µM | 5.52 µM | 1.53 µM | 0.0718 µM | 0.175 µM | 0.16 µM | 0.0552 µM | 0.0227 µM | 0.112 µM | 0.0226 µM | 0.168 µM | 0.0888 µM | 0.533 µM
CN1C(=O)N(C)C2C1NN=c1s/c(=C\c3ccc(F)cc3)c(=O)n12 (stereo not given) | > 100 µM | > 100 µM | > 100 µM | > 100 µM | > 100 µM | > 100 µM | > 100 µM | 6 µM | > 100 µM | > 100 µM | 1.68 µM | 0.915 µM | 8.49 µM | 0.54 µM | 3.07 µM | 4.23 µM | 2.77 µM | 0.785 µM | 4.62 µM | 4.13 µM
COc1ccc2cc(-c3c(-c4ccncc4)nc(-c4ccc(S(C)(=O)=O)cc4C)n3C)ccc2c1 | > 25 µM | > 25 µM | 24.4 µM | > 25 µM | > 25 µM | > 25 µM | > 25 µM | 20.7 µM | > 25 µM | > 25 µM | 8.73 µM | 7.97 µM | 5.16 µM | 6.88 µM | 6.91 µM | 7.99 µM | 7.77 µM | 3.99 µM | 11.1 µM | 6.78 µM
COc1ccc(Cn2cc3c(c2)-c2oncc2CC3)cc1 | > 100 µM | > 70.6 µM | 37.3 µM | > 66.5 µM | 22.2 µM | > 67.5 µM | 16.5 µM | 28.1 µM | > 100 µM | 22.3 µM | 6.24 µM | 4.33 µM | 5.14 µM | 2.4 µM | 2.82 µM | 5.85 µM | 3.47 µM | 5.25 µM | 8.19 µM | 4.88 µM
NC(=O)c1cc2c3ccccc3ccn2c1-c1ccccc1 | 3.54 µM | 11.9 µM | 7.77 µM | 11.8 µM | 15.9 µM | 14.4 µM | 10.5 µM | 2.26 µM | 13.4 µM | 40.9 µM | 0.143 µM | 0.0543 µM | 0.0179 µM | 0.12 µM | 0.521 µM | 0.319 µM | 0.042 µM | 0.0462 µM | 0.0759 µM | 0.883 µM
CC[PH+](CC)CC.O=COC1OC([S-])C(OC=O)C(OC=O)C1OC=O.[Au+] (stereo not given) | 3.08 µM | 2.56 µM | 3.66 µM | > 100 µM | 7.61 µM | 3.22 µM | 3.69 µM | 2.72 µM | 3.15 µM | 3.38 µM | 1.71 µM | 1.14 µM | 2.04 µM | 0.605 µM | 2.2 µM | 1.47 µM | 1.71 µM | 1.35 µM | 1.17 µM | 1.47 µM
Cc1cc2c(cc1C)N(C(=O)CCl)CCN2C(=O)CCl | 4.08 µM | 2.42 µM | 3.2 µM | 2 µM | 1.74 µM | 3.8 µM | 3.33 µM | 0.668 µM | 3.89 µM | 4.22 µM | 1.78 µM | 0.45 µM | 1.6 µM | 0.378 µM | 0.367 µM | 1.76 µM | 1.7 µM | 0.237 µM | 1.82 µM | 1.81 µM
CCn1c(-c2nonc2N)nc2c(C#CC(C)(C)O)nc(OCCNC)cc21 | > 25 µM | > 25 µM | 14.5 µM | > 25 µM | > 25 µM | > 25 µM | > 25 µM | 11 µM | > 25 µM | 15.4 µM | > 18.2 µM | 9.67 µM | 4.59 µM | 10.3 µM | 8.68 µM | 8.81 µM | 7.83 µM | 4.13 µM | 7.94 µM | 6.64 µM
CC(CCC(=O)O)C(=O)O (stereo not given) | > 100 µM | > 100 µM | > 100 µM | > 100 µM | > 100 µM | > 100 µM | > 100 µM | > 100 µM | > 100 µM | > 100 µM | – | – | – | – | – | – | – | – | – | –
